This is an account of results in patent US10463669B2, “Composition for treating or preventing liver cancer” (Seoul National University R&DB Foundation, priority 2016, dated 2019).

Test [1] deals with Hep3B cells. Put plainly: Cell proliferation / cell viability, MTS assay. The format is cell-based. Particulars: Homo sapiens, treated for 96 hours. On the procedure: (§1) HCC cell lines (Huh7 and Hep3B) were obtained from Korean Cell Line Bank (KCLB, Seoul, Korea). THLE-3 cell line (immortalized human liver […] cell line produced by infection with SV40 large T antigen) was obtained from ATCC (American Type Culture Collection). Cell line authentication by KCLB and ATCC was carried out by using DNA fingerprinting as a short tandem repeat analysis. All cell lines were tested for mycoplasma contamination. HCC cells were cultured in DMEM (Welgene, Gyeongsan-si, Korea) medium complemented with 10% fetal bovine serum (GenDepot, Barker, Tex., USA) in a humidified 5% CO2 incubator at 37° C. As it has been recommended by the ATCC manual, THLE-3 cells were cultured in BEGM (Lonza) medium complemented with 10% fetal bovine serum in a humidified 5% CO2 incubator at 37° C.
(§2) As it has been described before (10), the cell viability was measured by using Cell Titer 96 MTS (Promega). Cells were sewn in an amount of 500 to 1000 cells per well, and then treated for 96 hours at a pharmaceutical concentration as described in each graph. Each analysis was repeated 3 times at least. After plotting the data, IC50 values were obtained by using GraphPad software. By using Flexstation 3 multimode plate reader (Molecular Devices), optical density showing formazan production was measured at 490 nm. […]
(In general: Tetrazolium assays rely on reduction of a dye to a coloured formazan, in cell work by metabolically active cells.)

Test [2] has as its system Huh7 cells. Put plainly: Cell proliferation / cell viability, MTS assay. The format is cell-based. Particulars: Homo sapiens, Huh-7, treated for 96 hours. The method, then:
as §1, §2

The subject of test [3] is telomerase activity in HCC cell lines (Huh7 and Hep3B). Put plainly: Telomerase activity, TRAP assay. The format is cell-based, human. The method, then:
(§3) To have quantitative determination of the telomerase activity, TRAP assay was carried out by using TRAPEZE® RT Telomerase Detection Kit (Millipore, Darmstadt, Germany; […]). According to the manual, the whole protein extract (100 ng) was used for each reaction.

Test [4] relates to telomerase activity in THLE-3 cells. Put plainly: Telomerase activity, TRAP assay. The format is cell-based, human. Conditions: 150 μmol/L H2O2-treated THLE-3 cells. On the procedure:
as §3

Test [5] concerns β-catenin and SetD1A binding to the TERT promoter in Huh7 cells. Put plainly: Chromatin immunoprecipitation (ChIP) at the TERT promoter. The format is cell-based, human. Particulars: HCC (Huh7) cells, with or without 300 μmol/L H2O2. On the procedure: As it has been described before (Lim S O, et al. Gastroenterology. 2008; 135: 2128-40, 40 el-8.; Hoffmeyer K, et al. Science. 2012; 336: 1549-54.), several modified ChIP (chromatin immunoprecipitation) tests were carried out. In the presence or absence of a PI3K inhibitor, an AKT inhibitor, or a GSK3β inhibitor, Huh7 cells were cultured for 4 days with or without a treatment of 300 μmol/L H2O2. Under mild shaking for 20 minutes at room temperature, the cells were fixed by using 1% paraformaldehyde. After that, the cells were rinsed twice with ice-cold PBS; resuspended with 400 μL of micrococcal nuclease buffer (50 mmol/L TrisHCl [pH 8.0], 5 mmol/L CaC12, 100 μg/mL BSA, 10 mmol/L KCl, and protease inhibitor cocktail [Roche, Basel, Switzerland; 4693159001]); and disrupted with 2 mm-diameter zirconium beads (Watson); to have micrococcal nuclease digestion (New England Biolabs, Beverly, Mass., USA; M0247S). Chromatin (150 μg) was collected and diluted in a dilution buffer (0.1% NP-40, 2 mmol/L EDTA, 150 mmol/L NaCl, 20 mmol/L TrisHCl [pH 8.0], protease inhibitor cocktail [Roche]), and a phosphatase inhibitor cocktail [Calbiochem]), and then subjected to pre-clearing with 2 μg digested salmon sperm DNA, 10 μL preimmune serum (Santa Cruz Biotechnology; sc-2027), and Dynabeads Protein G (Life Technologies; 1004D) for 2 hours at 4° C. After the immunoprecipitation, 20 μL of Dynabeads Protein G were added thereto and the culture was continued for 2 hours. The Dynabeads were washed continuously for 10 minutes with TSE 1 (0.1% SDS, 1% Triton X-100, 2 mmol/L EDTA, 20 mmol/L TrisHCl, and 150 mmol/L NaCl), TSE II (0.1% SDS, 1% Triton X-100, 2 mmol/L EDTA, 20 mmol/L TrisHCl, and 500 mmol/L NaCl), and buffer III (0.25 mol/L LiCl, 1% NP-40, 1% deoxycholate, 1 mmol/L EDTA, and 10 mmol/L TrisHCl). After that, the beads were washed 3 times with TE buffer, and extraction was made by using 1% SDS and 0.1 mol/L NaHCO3. To have reverse formaldehyde cross-linking, the elution solution was heated overnight at 65° C. By using NucleoSpin DNA clean-up kit, DNA debris were purified. By using primers specific to the TERT promoter region, the PCR amplified product was quantified by qPCR (ABI 7300; Applied Biosystems, Foster City, Calif., USA). The PCR amplification was normalized against the TERT intron. The primer sequences are as follows: β-catenin interaction site for ChIP (forward primer: TCCCGGGTCCCCGGCCCA (SEQ ID NO:8); reverse primer: […] (SEQ ID NO:9)) and TERT intron for ChIP (forward primer: […] (SEQ ID NO:10); reverse primer: […] (SEQ ID NO:11)). For each of the β-catenin interaction site which has been recorded before, 20-22 bp were added. The antibodies that are used are as follows: rabbit polyclonal anti-β-catenin (1:200, Abcam, Cambridge, Mass., USA; ab6302), mouse monoclonal anti-RNA polymerase II (1:50, Covance, Princeton, N.J., USA; MMS-126R), and rabbit polyclonal anti-SETD1A (1:100, Novus Biologicals, Littleton, Colo., USA; NBP1-81513).
Inventors of the present invention made an investigation to see whether or not the increased chromatin accessibility in TERT promoter during TERT transcription is related with β-catenin. To do so, by using intrinsic β-catenin and an antibody against histone methyl transferase SetD1A which has been reported to promote the TERT transcription based on chromatin remodeling, chromatin immunoprecipitation was carried out. When a PI3K or AKT inhibitor is treated together for chromatin immunoprecipitation, β-catenin and SetD1A, which bind to the TERT promoter in HCC cells, were reduced even in the presence of H2O2 (FIGS. 3A and 3B). However, when the treatment is carried out also with a GSK3p inhibitor, increased binding of β-catenin and SetD1A was shown regardless of a treatment with H2O2 (FIG. 3C).

For `CC[C@H](Nc1ncnc2nc[nH]c12)c1nc2cccc(F)c2c(=O)n1-c1ccccc1` [idelalisib, 5-fluoro-3-phenyl-2-[(1S)-1-(7H-purin-6-ylamino)propyl]-4(3H)-quinazolinone], the IC50 in test [1] and in test [2] was below 30 µM in each case. The telomerase activity result in test [3] (300 μmol/L H2O2-treated HCC cell lines) is on record as “reduced”; in test [4] it was “not”. For the same molecule, the “ROS-mediated increase in telomerase activity” value in test [3] (H2O2-treated cells) is reported as “almost completely inhibited”. The “SetD1A binding to the TERT promoter” value in test [5] was “reduced”. In test [5], the “β-catenin binding to the TERT promoter” value was “reduced”.
